Common to all, as to assay type: cell-based, human
Assay [1] deals with BTSC30M. The assay is described as follows: alamarBlue cell viability, BTSC 30M. The conditions noted are these: Table 4 library screen, alamarBlue; for IC50: Homo sapiens, read-out: 30M IC50 (μM). The method, then:
(§1) First, the library was screened for biological activity against a set of three representative GBM BTSCs derived from GBM patients, including the very aggressive GBM BTSC lines, BTSC73M, BTSC30M, BTSC68EF. Dissociated BTSC spheres were seeded at 1500 cells/96-well and treated with drug compound or vehicle (DMSO) one day after plating. Cell viability following drug treatment was assessed after 72 hrs using the ALAMARBLUE™ assay (Invitrogen) according to the manufacturer's instructions. All culture experiments were performed in triplicate with a minimum of three wells per condition.
(§2) BTSC spheres were dissociated to single cells with the enzyme Accumax (Innovative Technologies), seeded at 1500 cells/96-well and treated with drug or vehicle (DMSO) one day after plating. […] BTSC spheres were dissociated to single cells as above and plated in 96 well plates in triplicate at 3000 cells/96-well. […] Cell viability following drug treatment was assessed three days later using the ALAMARBLUE™ assay (Invitrogen) according to the manufacturer's instructions. All culture experiments were performed in triplicate with a minimum of three wells per condition.
A general note: Resazurin is reduced to fluorescent resorufin, in cell work by metabolically active cells.

Assay [2] deals with BTSC68EF. The assay is described as follows: alamarBlue cell viability, BTSC 68EF. Particulars: Table 4 library screen, alamarBlue; for IC50: Homo sapiens, read-out: 68EF IC50. The method, then: as §1, §2
The test system of assay [3] is BTSC73M. The assay is described as follows: alamarBlue cell viability, BTSC 73M. Particulars: Table 4 library screen, alamarBlue; for IC50: Homo sapiens, read-out: 73M IC50. As for the experimental part:
as §1, §2

Assay [4] has as its system 147EF. Kind of assay: alamarBlue cell viability, BTSC 147EF. The conditions noted are these: Table 4 library screen. An excerpt:
BTSC spheres were dissociated to single cells with the enzyme Accumax (Innovative Technologies), seeded at 1500 cells/96-well and treated with drug or vehicle (DMSO) one day after plating. Cytotoxicity studies were repeated independently at Sickkids Hospital using BTSC lines 25M, 67EF, 73EF, 84EF and 127EF. BTSC spheres were dissociated to single cells as above and plated in 96 well plates in triplicate at 3000 cells/96-well. In both sets of experiments drugs were used as serial dilutions within the range of 5 μM to 100 nM in the first set and 25 μM to 10 nM. Cell viability following drug treatment was assessed three days later using the ALAMARBLUE™ assay (Invitrogen) according to the manufacturer's instructions. All culture experiments were performed in triplicate with a minimum of three wells per condition. Table 4 below illustrates a screen of the library against a number of BTSCs using ALAMARBLUE™ assay.

Broadly, the IC50 is the concentration at which inhibition is half-maximal.

As for `Cc1ccc(S(=O)(=O)N(C)CC(=O)N(Cc2ccc(C3CCCCC3)cc2)c2ccc([N+](=O)[O-])cc2)cc1` [Compound 9, N-(4-cyclohexylbenzyl)-2-(N,4-dimethylphenylsulfonamido)-N-(4-nitrophenyl)acetamide], the “30M IC50 (μM)” value in assay [1] was “no effect”. Further, the “68EF IC50 (μM)” value in assay [2] is “no effect”. Besides, in assay [3], the “73M IC50 (μM)” value is reported as “no effect”. Further, the “147EF IC50 (μM)” value in assay [4] is on record as “no effect”.
As to `CN(CC(=O)N(Cc1ccc(C2CCCCC2)cc1)c1ccc(CP(=O)(O)O)cc1)S(=O)(=O)c1c(F)c(F)c(F)c(F)c1F` [Compound 21, (4-(N-(4-cyclohexylbenzyl)-2-(2,3,4,5,6-pentafluoro-N-methylphenylsulfonamido)acetamido)benzyl)phosphonic acid], the “73M IC50 (μM)” value in assay [3] was “no effect”.
In the case of `CN(CC(=O)N(Cc1ccc(C2CCCCC2)cc1)c1ccc(O)cc1)S(=O)(=O)c1c(F)c(F)c(F)c(F)c1F` [Compound 29, N-(4-cyclohexylbenzyl)-N-(4-hydroxphenyl)-2-(2,3,4,5,6-pentafluoro-N-methylphenylsulfonamido)acetamide], the IC50 in assay [1] came out at 0.941 µM; in assay [2] it was 1.09 µM.
In the case of `CC(=O)OCOC(=O)c1ccc(N(Cc2ccc(C3CCCCC3)cc2)C(=O)CN(C)S(=O)(=O)c2c(F)c(F)c(F)c(F)c2F)cc1` [Compound 26, acetoxymethyl 4-(N-(4-cyclohexylbenzyl)-2-(2,3,4,5,6-pentafluoro-N-methylphenylsulfonamido)acetamido)benzoate], the IC50 is 1.95 µM in assay [1] and 4.34 µM in assay [3].
For the compound `CN(CC(=O)N(Cc1ccc(C2CCCCC2)cc1)c1ccc(-c2nnn[nH]2)cc1)S(=O)(=O)c1c(F)c(F)c(F)c(F)c1F` [Compound 35, N-(4-(1H-tetrazol-5-yl)phenyl)-N-(4-cyclohexylbenzyl)-2-(2,3,4,5,6-pentafluoro-N-methylphenylsulfonamido)acetamide], the “30M IC50 (μM)” value in assay [1] was “no effect”. Also, the “68EF IC50 (μM)” value in assay [2] was “no effect”. Moreover, the IC50 in assay [3] worked out at 2.77 µM.
`CN(CC(=O)N(Cc1ccc(C2CCCCC2)cc1)c1ccc(C#N)cc1)S(=O)(=O)c1c(F)c(F)c(F)c(F)c1F` [Compound 34, N-(4-cyanophenyl)-N-(4-cyclohexylbenzyl)-2-(2,3,4,5,6-pentafluoro-N-methylphenylsulfonamido)acetamide]: in assay [1], the IC50 was determined as 2.23 µM. Besides, the “73M IC50 (μM)” value in assay [3] is “no effect”.
Take `CN(CC(=O)N(Cc1ccc(C2CCCCC2)cc1)c1ccc(NS(=O)(=O)c2ccc3ncccc3c2)cc1)S(=O)(=O)c1c(F)c(F)c(F)c(F)c1F` [Compound 13, N-(4-cyclohexylbenzyl)-2-(2,3,4,5,6-pentafluoro-N-methylphenylsulfonamido)-N-(4-(quinoline-6-sulfonamido)phenyl)acetamide]: the “30M IC50 (μM)” value in assay [1] is “no effect”. Moreover, in assay [3], the “73M IC50 (μM)” value was “no effect”.
Consider `Cc1ccc(S(=O)(=O)N(C)CC(=O)N(Cc2ccc(C3CCCCC3)cc2)c2ccc(NC(=O)C(=O)O)cc2)cc1` [Compound 46, 2-((4-(N-(4-cyclohexylbenzyl)-2-(N,4-dimethylphenylsulfonamido)acetamido)phenyl)amino)-2-oxoacetic acid], for which, in assay [1], the “30M IC50 (μM)” value was “no effect”. The “73M IC50 (μM)” value in assay [3] is “no effect”. In addition, the “147EF IC50 (μM)” value in assay [4] was “no effect”.
As for `CN(CC(=O)N(Cc1ccc(C2CCCCC2)cc1)c1cc(C(=O)O)cc(C(=O)O)c1)S(=O)(=O)c1c(F)c(F)c(F)c(F)c1F` [Compound 37, 5-(N-(4-cyclohexylbenzyl)-2-(2,3,4,5,6-pentafluoro-N-methylphenylsulfonamido)acetamido)isophthalic acid], the “30M IC50 (μM)” value in assay [1] was “no effect”. Moreover, the “73M IC50 (μM)” value in assay [3] is recorded as “no effect”.
Take `CCOC(=O)C(=O)Nc1ccc(N(Cc2ccc(C3CCCCC3)cc2)C(=O)CN(C)S(=O)(=O)c2ccc(C)cc2)cc1` [Compound 18, ethyl 2-((4-(N-(4-cyclohexylbenzyl)-2-(N,4-dimethylphenylsulfonamido)acetamido)phenyl)amino)-2-oxoacetate]: the “30M IC50 (μM)” value in assay [1] is given as “no effect”. The “73M IC50 (μM)” value in assay [3] is listed as “no effect”. The same compound registered an IC50 in assay [4] (Homo sapiens) of 3.58 µM.
For `CN(CC(=O)N(Cc1ccc(C2CCCCC2)cc1)c1ccc(NS(N)(=O)=O)cc1)S(=O)(=O)c1c(F)c(F)c(F)c(F)c1F` [Compound 16, N-(4-cyclohexylbenzyl)-2-(2,3,4,5,6-pentafluoro-N-methylphenylsulfonamido)-N-(4-(sulfamoylamino)phenyl)acetamide], the half-inhibitory concentration (IC50) in assay [1] was 0.95 µM; in assay [2] it was 0.839 µM; in assay [3], 2.04 µM.
Regarding `CCOC(=O)C(=O)Nc1ccc(N(Cc2ccc(C3CCCCC3)cc2)C(=O)CN(C)S(=O)(=O)c2c(F)c(F)c(F)c(F)c2F)cc1` [Compound 17, ethyl 2-((4-(N-(4-cyclohexylbenzyl)-2-(2,3,4,5,6-pentafluoro-N-methylphenylsulfonamido)acetamido)phenyl)amino)-2-oxoacetate], the IC50 in assay [1] worked out at 0.694 µM; in assay [2], 0.631 µM; in assay [3] it was 1.24 µM.
Consider `CN(CC(=O)N(Cc1ccc(C2CCCCC2)cc1)c1ccc(NS(=O)(=O)c2ccc3ccccc3c2)cc1)S(=O)(=O)c1c(F)c(F)c(F)c(F)c1F` [Compound 12, N-(4-cyclohexylbenzyl)-N-(4-(naphthalene-2-sulfonamido)phenyl)-2-(2,3,4,5,6-pentafluoro-N-methylphenylsulfonamido)acetamide], for which the “30M IC50 (μM)” value in assay [1] is listed as “no effect”. Besides, the “73M IC50 (μM)” value in assay [3] is “no effect”.
For `CN(CC(=O)N(Cc1ccc(C2CCCCC2)cc1)c1cccc(O)c1)S(=O)(=O)c1c(F)c(F)c(F)c(F)c1F` [Compound 30, N-(4-cyclohexylbenzyl)-N-(3-hydroxyphenyl)-2-(2,3,4,5,6-pentafluoro-N-methylphenylsulfonamido)acetamide], the IC50 in assay [1] was determined as 0.776 µM; in assay [3] it was 2.84 µM.
In the case of `COC(=O)c1ccc(N(Cc2ccc(C3CCCCC3)cc2)C(=O)CN(C)S(=O)(=O)c2c(F)c(F)c(F)c(F)c2F)cc1` [Compound 39, methyl 4-(N-(4-cyclohexylbenzyl)-2-(2,3,4,5,6-pentafluoro-N-methylphenylsulfonamido)acetamido)benzoate], the IC50 in assay [1] amounted to 1.09 µM; in assay [2] it was 0.607 µM; in assay [3] it was 3.31 µM.
For `CN(CC(=O)N(Cc1ccc(C2CCCCC2)cc1)c1ccc(NS(C)(=O)=O)cc1)S(=O)(=O)c1c(F)c(F)c(F)c(F)c1F` [Compound 14, N-(4-cyclohexylbenzyl)-N-(4-(methylsulfonamido)phenyl)-2-(2,3,4,5,6-pentafluoro-N-methylphenylsulfonamido)acetamide], the IC50 in assay [1] is 0.718 µM; in assay [2] it was 0.806 µM; in assay [3] it was 1.81 µM.
Consider `CN(CC(=O)N(Cc1ccc(C2CCCCC2)cc1)c1ccc(NC(=O)C(=O)O)cc1)S(=O)(=O)c1c(F)c(F)c(F)c(F)c1F` [Compound 28, 2-((4-(N-(4-cyclohexylbenzyl)-2-(2,3,4,5,6-pentafluoro-N-methylphenylsulfonamido)acetamido)phenyl)amino)-2-oxoacetic acid], for which the “30M IC50 (μM)” value in assay [1] is “no effect”. In assay [3], the “73M IC50 (μM)” value was “no effect”. Besides, in assay [4], the “147EF IC50 (μM)” value was “no effect”.
Turning to `CN(CC(=O)N(Cc1ccc(C2CCCCC2)cc1)c1ccc(NS(=O)(=O)c2cncn2C)cc1)S(=O)(=O)c1c(F)c(F)c(F)c(F)c1F` [Compound 15, N-(4-cyclohexylbenzyl)-N-(4-(1-methyl-1H-imidazole-5-sulfonamido)phenyl)-2-(2,3,4,5,6-pentafluoro-N-methylphenylsulfonamido)acetamide], the IC50 in assay [1] came to 0.607 µM.
Take `CCOC(=O)c1ccc(N(Cc2ccc(C3CCCCC3)cc2)C(=O)CN(C)S(=O)(=O)c2c(F)c(F)c(F)c(F)c2F)cc1` [Compound 40, ethyl 4-(N-(4-cyclohexylbenzyl)-2-(2,3,4,5,6-pentafluoro-N-methylphenylsulfonamido)acetamido)benzoate]: the “73M IC50 (μM)” value in assay [3] is “no effect”.
On to `CCOP(=O)(Cc1ccc(N(Cc2ccc(C3CCCCC3)cc2)C(=O)CN(C)S(=O)(=O)c2c(F)c(F)c(F)c(F)c2F)cc1)OCC` [Compound 20, diethyl 4-(N-(4-cyclohexylbenzyl)-2-(2,3,4,5,6-pentafluoro-N-methylphenylsulfonamido)acetamido)benzylphosphonate], for which the IC50 in assay [1] is 0.664 µM; in assay [3] it was 1.82 µM. Further, in assay [2], the “68EF IC50 (μM)” value is reported as “no effect”.

These data come from patent US9650399B2, “Salicylic acid derivatives, pharmaceutically acceptable salt thereof, composition thereof and method of use thereof” (The Governing Council of the University of Toronto, priority 2012, dated 2017).
